{"source": "patent US20060020042A1", "about": "“Memantine for the treatment of mild and mild to moderate Alzheimer's disease” (Forest Laboratories, Inc., priority 2004, published 2006)", "key": {"[1]": {"tested_on": "outpatients with mild-to-moderate Alzheimer's disease", "assay": "ADCS-ADL in randomized, double-blind, placebo-controlled study", "assay_type": "in vivo, human", "settings": "Week 24, ITT, 20 mg/day", "description": "In the study of the present invention, there were approximately 400 patients enrolled across 42 centers. Evaluation of primary efficacy was achieved by Alzheimer's Disease Assessment Scale-cognitive subscale (ADAS-cog) and the Clinician's Interview-Based Impression of Change including caregiver information (CIBIC-plus). Secondary efficacy was determined using Alzheimer's disease Cooperative Study-Activities of Daily Living (ADCS-ADL) and Neuropsychiatric Inventory (NPI) criteria. The ADCS-ADL inventory consists of 23 questions used to measure the functional capabilities of patients with dementia. These questions are selected from a larger set of 49 questions in the original ADL scale. A more common selection is of 19 questions from the same 49 question group. Each ADL item comprises a series of hierarchical sub-questions, ranging from the highest level of independent performance of each ADL to complete loss. The ADSC-ADL Inventory total score ranges from 0 (lower functioning status) to 78 (higher functioning status). A higher score indicates a better functioning status. […] Results were evaluated over seven clinical visits; at initial screening, baseline, and the end of weeks 4, 8, 12, 18 and 24. […] Descriptive statistics were calculated by visit. […]"}, "[2]": {"tested_on": "brain glucose metabolism in mild-to-moderate AD subjects", "assay": "FDG PET regional brain glucose metabolism", "assay_type": "in vivo, human", "settings": "24 weeks of 20 mg/day", "description": "Drug treatment. As stated above, patients were randomized to receive 20 mg/day (10 b.i.d.) memantine or placebo for 24 weeks. PET scans were performed for 10 (5 receiving memantine and 5 receiving placebo) patients at baseline and at the end of week 24.\nPET Scan Acquisition. Subjects were PET scanned at the University of California, Irvine Brain Imaging Center using a GE 2048-15B dedicated head scanner. Thirty slices at 6.5-mm intervals (15 in each of two sets) were obtained so as to cover the entire brain. Attenuation correction was performed by obtaining a transmission scan using a ^68Ge pin source. A thermosetting plastic facemask was used to hold the subject stationary during the 60 minutes of total image acquisition. Scans were reconstructed with a blank and a transmission scan. PET image count was used for study analyses and adjusted for intrasubject global differences using normalization (proportional scaling).\nPET Image Methodology and Analysis. Differences in regional FDG uptake were analyzed using SPM99 software (Wellcome Department of Cognitive Neurology, London, UK), implemented on the Matlab platform (MathWorks Inc., Sherborn, Mass.). Statistical parametric maps (SPMs) are spatially extended statistical processes that are constructed to test hypotheses about regionally specific effects in neuroimaging data. […]"}, "[3]": {"settings": "cited from earlier work"}}, "data": [{"smiles": "CC12CC3CC(C)(C1)CC(N)(C3)C2", "note": "[Memantine, 1-amino-3,5-dimethyladamantane]", "values": [{"measurement": "ADCS-ADL Difference (memantine minus placebo, LS mean)", "setting": "[1]; LOCF analysis, p=0.890", "result": 0.1}, {"measurement": "ADCS-ADL Difference (memantine minus placebo, LS mean)", "setting": "[1]; OC analysis, p=0.975", "result": 0.0}, {"measurement": "regional brain glucose metabolic activity (FDG PET) compared to baseline", "setting": "[2]; 5 patients, CNS incl. cerebral cortex, cerebellum, brainstem, p<0.025", "result": "metabolic increases"}, {"measurement": "regional brain glucose metabolism (FDG PET) compared to baseline", "setting": "[2]; isolated region of left visual cortex and left putamen", "result": "decreases in glucose metabolism"}, {"measurement": "solubility in aqueous media", "setting": "[3]", "result": "highly soluble"}]}]}
